As a reminder, the aqueous solubility is the concentration that dissolves in the medium under given conditions. Lower therefore signals little dissolved substance.

Converted amounts (≈) assume the structure as drawn.

For the data set the following is noted: for aqueous solubility: pH 6.8.

`CNC(=O)c1ccc(Nc2ncc(C(F)(F)F)c(NCc3nccnc3N(C)S(C)(=O)=O)n2)cc1` returned an intrinsic clearance, human liver microsomes of 28.1 mL/min/kg; an intrinsic clearance, rat liver microsomes of 141 mL/min/kg; an aqueous solubility of 1.9 µg/mL (≈ 3.72 µM).

`Cc1ccc(-c2csc(CC(N)=O)n2)cc1C`: the MDR1-MDCK efflux ratio was 0.752 and the aqueous solubility turned out to be 35.9 µg/mL (≈ 146 µM).

`CCc1nc(CC)n(Cc2nc(C)cs2)n1`: the MDR1-MDCK efflux ratio worked out at 0.797; the intrinsic clearance, human liver microsomes is not above 4.74 mL/min/kg; the intrinsic clearance, rat liver microsomes is 39.8 mL/min/kg; the aqueous solubility was found to be 35.9 µg/mL (≈ 152 µM).

For the molecule `N#Cc1cc(CN2CCC(Nc3ncnc4sc(Cl)cc34)CC2)ccc1F`, the MDR1-MDCK efflux ratio is 9.4; the intrinsic clearance, human liver microsomes was 123 mL/min/kg; the intrinsic clearance, rat liver microsomes was determined as 1680 mL/min/kg.

For `Cc1cnc(CNC2(c3nccs3)CCCC2)cn1`, the intrinsic clearance, human liver microsomes is not above 4.74 mL/min/kg and the intrinsic clearance, rat liver microsomes stood at 245 mL/min/kg.

Consider `Cc1cccc(NC(=O)c2noc3c2CCCC3)n1`, for which the intrinsic clearance, human liver microsomes amounted to 197 mL/min/kg; the intrinsic clearance, rat liver microsomes was 1070 mL/min/kg; the aqueous solubility turned out to be 17.1 µg/mL (≈ 66.3 µM).

For `O=C(c1ccccc1)N1CCN2C(=O)N(Cc3ccccc3)C(=O)[C@H]2C1`, the MDR1-MDCK efflux ratio is 1.52; the intrinsic clearance, human liver microsomes was found to be 6.77 mL/min/kg; the intrinsic clearance, rat liver microsomes was found to be 78.8 mL/min/kg; the aqueous solubility was 62.3 µg/mL (≈ 178 µM).

Regarding `Cc1ccc2c(c1)cc(C(=O)N1CCOC(C(=O)N3CCc4ccccc4C3)C1)n2C` (configuration not stated), the MDR1-MDCK efflux ratio was found to be 2.39; the intrinsic clearance, human liver microsomes stood at 196 mL/min/kg; the intrinsic clearance, rat liver microsomes worked out at 2510 mL/min/kg.

`Cc1ccc(S(=O)(=O)N2CCC(c3nnc(-c4cccnc4)o3)C2)cc1` (configuration not stated): the MDR1-MDCK efflux ratio amounted to 2.87; the intrinsic clearance, human liver microsomes came out at 41.7 mL/min/kg; the intrinsic clearance, rat liver microsomes was found to be 591 mL/min/kg.

Molecule `Cc1nn(-c2ccccc2)c(C)c1CN` came in with an aqueous solubility of 20.2 µg/mL (≈ 101 µM).

Regarding `Cc1ccc(Cl)c(OC[C@@]2(O)CN(C3CCCC3)CC[C@@H]2O)c1`, the MDR1-MDCK efflux ratio stood at 1.03; the intrinsic clearance, human liver microsomes amounted to 325 mL/min/kg; the intrinsic clearance, rat liver microsomes is 2250 mL/min/kg.

On to `O=C(CCN1CCN(C(=O)OCc2cc(Cl)cc(Cl)c2)CC1)c1ccc2[nH]c(=O)oc2c1`, for which the intrinsic clearance, human liver microsomes was 147 mL/min/kg; the intrinsic clearance, rat liver microsomes is 513 mL/min/kg; the aqueous solubility is 4.4 µg/mL (≈ 9.2 µM).

`CN(Cc1ccc(Br)o1)C(=O)CN1CCCC1=O`: the MDR1-MDCK efflux ratio is 2.67; the intrinsic clearance, human liver microsomes is not above 4.74 mL/min/kg; the intrinsic clearance, rat liver microsomes was 16.7 mL/min/kg; the aqueous solubility came to 70 µg/mL (≈ 222 µM).

For the molecule `Cc1cc(C(F)(F)F)nc(CCNC(=O)N(C)Cc2c(C)noc2C)n1`, the MDR1-MDCK efflux ratio worked out at 16.4; the intrinsic clearance, human liver microsomes was 172 mL/min/kg; the intrinsic clearance, rat liver microsomes was 578 mL/min/kg.

With `N#Cc1ccc(OCCn2cccn2)cc1`, the MDR1-MDCK efflux ratio turned out to be 0.584; the intrinsic clearance, human liver microsomes was 6.93 mL/min/kg; the intrinsic clearance, rat liver microsomes was not above 10.7 mL/min/kg; the aqueous solubility came to 39.8 µg/mL (≈ 187 µM).

Consider `CCNc1ccnc(N(C)Cc2nc3ccccc3n2C)n1`, for which the MDR1-MDCK efflux ratio came out at 1.28; the intrinsic clearance, human liver microsomes was 29.5 mL/min/kg; the intrinsic clearance, rat liver microsomes was found to be 434 mL/min/kg; the aqueous solubility was 37 µg/mL (≈ 125 µM).

As for `Cc1ccnc(N2CC(O)(c3ccc(F)cc3)C2)c1C#N`, the MDR1-MDCK efflux ratio is 0.696; the intrinsic clearance, human liver microsomes is 99.1 mL/min/kg; the intrinsic clearance, rat liver microsomes was found to be 3630 mL/min/kg.

For `CCn1c(=O)n(CC)c2cc(N)ccc21`, the MDR1-MDCK efflux ratio came to 0.814; the intrinsic clearance, human liver microsomes was not above 4.74 mL/min/kg; the intrinsic clearance, rat liver microsomes stood at 20 mL/min/kg; the aqueous solubility was found to be 37.5 µg/mL (≈ 183 µM).

In the case of `Cc1ccccc1C(=O)Nc1nc(C)c(C)s1`, the MDR1-MDCK efflux ratio was 0.557; the intrinsic clearance, human liver microsomes is 90 mL/min/kg; the intrinsic clearance, rat liver microsomes turned out to be 280 mL/min/kg; the aqueous solubility worked out at 30.4 µg/mL (≈ 123 µM).

Regarding `CCn1cc(C2CCN(Cc3ccc(C#N)cc3)CC2)cn1`, the MDR1-MDCK efflux ratio turned out to be 0.45; the intrinsic clearance, human liver microsomes was 12.2 mL/min/kg; the intrinsic clearance, rat liver microsomes came to 188 mL/min/kg; the aqueous solubility worked out at 43 µg/mL (≈ 146 µM).

As for `Cc1nc(CC2CCN(S(=O)(=O)c3c(C)noc3C)CC2)cc(NC2CCCC2)n1`, the MDR1-MDCK efflux ratio was 11.4; the intrinsic clearance, human liver microsomes is 249 mL/min/kg; the intrinsic clearance, rat liver microsomes was 2420 mL/min/kg; the aqueous solubility is 60.5 µg/mL (≈ 139 µM).

As to `CCOc1cccc(NS(C)(=O)=O)n1`, the MDR1-MDCK efflux ratio was determined as 0.969; the intrinsic clearance, human liver microsomes was not above 4.74 mL/min/kg; the intrinsic clearance, rat liver microsomes was not above 10.7 mL/min/kg.

As for `COc1ccc(CN[C@@H]2CCC[C@H]2Cc2cc(C)no2)cc1OC`, the MDR1-MDCK efflux ratio was found to be 3.3; the intrinsic clearance, human liver microsomes worked out at 36.9 mL/min/kg; the intrinsic clearance, rat liver microsomes is 1120 mL/min/kg.

On to `CCCCCNC(=N)N/N=C/c1c[nH]c2ccc(OC)cc12`, for which the MDR1-MDCK efflux ratio turned out to be 72; the intrinsic clearance, human liver microsomes stood at 10.3 mL/min/kg; the intrinsic clearance, rat liver microsomes came out at 182 mL/min/kg; the aqueous solubility was 30.1 µg/mL (≈ 100 µM).

For the molecule `CCc1nc(C)c(Cn2ccnc2-c2cnc(N3CCCC3)nc2)s1`, the MDR1-MDCK efflux ratio worked out at 4.25; the intrinsic clearance, human liver microsomes was 31.9 mL/min/kg; the intrinsic clearance, rat liver microsomes was 548 mL/min/kg; the aqueous solubility amounted to 35 µg/mL (≈ 98.9 µM).

For the molecule `O=C(O)Cc1ccc(Oc2ccncc2)cc1`, the MDR1-MDCK efflux ratio was determined as 1.2; the intrinsic clearance, human liver microsomes is not above 4.74 mL/min/kg; the intrinsic clearance, rat liver microsomes is not above 10.7 mL/min/kg.

In the case of `c1cnc(NCc2cccc(-c3cccnc3)c2)nc1`, the MDR1-MDCK efflux ratio turned out to be 0.571; the intrinsic clearance, human liver microsomes amounted to 19.6 mL/min/kg; the intrinsic clearance, rat liver microsomes is 148 mL/min/kg.

Regarding `O=C(c1ccccc1F)N1CCC[C@@H]1Cn1nnn(-c2cccs2)c1=O`, the MDR1-MDCK efflux ratio is 0.769; the intrinsic clearance, human liver microsomes was 62.4 mL/min/kg; the intrinsic clearance, rat liver microsomes is 1240 mL/min/kg; the aqueous solubility turned out to be 33 µg/mL (≈ 88.4 µM).

For `Cc1ncccc1CNc1ccc(CC#N)cc1`, the MDR1-MDCK efflux ratio is 0.534; the intrinsic clearance, human liver microsomes worked out at 18.2 mL/min/kg; the intrinsic clearance, rat liver microsomes is 364 mL/min/kg.

As for `CCN(CCOC)C(=O)Nc1ccc2occc(=O)c2c1`, the MDR1-MDCK efflux ratio was found to be 1.32; the intrinsic clearance, human liver microsomes was 9.83 mL/min/kg; the intrinsic clearance, rat liver microsomes came to 32.7 mL/min/kg.

On to `CC(C)c1noc(CNC(=O)N2C[C@H]3C[C@@H](C2)c2cccc(=O)n2C3)n1`, for which the MDR1-MDCK efflux ratio was determined as 3.14; the intrinsic clearance, human liver microsomes stood at 7.35 mL/min/kg; the intrinsic clearance, rat liver microsomes worked out at 73.7 mL/min/kg.

On to `CN(c1ncccc1CNc1nc(Nc2ccc3c(c2)CC(=O)N3)ncc1C(F)(F)F)S(C)(=O)=O`, for which the intrinsic clearance, human liver microsomes amounted to 32.2 mL/min/kg; the intrinsic clearance, rat liver microsomes stood at 94.5 mL/min/kg; the aqueous solubility is 94.4 µg/mL (≈ 186 µM).

With `OCC1CCCCN1Cc1ccc(Cl)c(Cl)c1` (configuration not stated), the MDR1-MDCK efflux ratio came out at 0.524; the fraction unbound, human plasma was determined as 0.246; the fraction unbound, rat plasma amounted to 0.305; the intrinsic clearance, human liver microsomes was not above 4.74 mL/min/kg. This molecule displayed an intrinsic clearance, rat liver microsomes of 299 mL/min/kg and an aqueous solubility of 42 µg/mL (≈ 153 µM).

Take `CN(C)[C@@H]1CN(C(=O)CCn2cnc3ccccc32)C[C@H]1O`: the MDR1-MDCK efflux ratio was found to be 1.66; the intrinsic clearance, human liver microsomes is 5.49 mL/min/kg; the intrinsic clearance, rat liver microsomes amounted to 30.7 mL/min/kg; the aqueous solubility was 151 µg/mL (≈ 500 µM).

As to `CC(C)(C)c1ccc(C2=NC3(CCNCC3)NC2=O)cc1`, the MDR1-MDCK efflux ratio is 33.8; the intrinsic clearance, human liver microsomes is 6.52 mL/min/kg; the intrinsic clearance, rat liver microsomes stood at 59.6 mL/min/kg; the aqueous solubility was determined as 45 µg/mL (≈ 158 µM).

On to `Cn1nccc1C(=O)C1CCN(C(=O)c2cccs2)CC1`, for which the intrinsic clearance, human liver microsomes was 12.2 mL/min/kg and the intrinsic clearance, rat liver microsomes was determined as 97.5 mL/min/kg.

In the case of `COc1cccc(-c2ocnc2C(=O)Nc2ccc(-c3ccc(C)o3)cc2)c1`, the aqueous solubility is 0.4 µg/mL (≈ 1.07 µM).

As for `CN(CC1(CO)CCC1)C(=O)CCN1CCCCC1=O`, the MDR1-MDCK efflux ratio was determined as 23.2; the intrinsic clearance, human liver microsomes was not above 4.74 mL/min/kg; the intrinsic clearance, rat liver microsomes came out at 46 mL/min/kg.

For the molecule `Cn1nc(N)c2ccc(Br)cc21`, the MDR1-MDCK efflux ratio is 0.72; the intrinsic clearance, human liver microsomes worked out at 24 mL/min/kg; the intrinsic clearance, rat liver microsomes amounted to 94.8 mL/min/kg.

In the case of `O=C(CNC(=O)c1ccc(Cl)cc1)Nc1nc(-c2ccc3ccccc3c2)cs1`, the aqueous solubility amounted to 0.4 µg/mL (≈ 0.948 µM).

For the molecule `Cc1cnc(CNCc2cccc3c2OCO3)s1`, the MDR1-MDCK efflux ratio was found to be 0.607; the intrinsic clearance, human liver microsomes amounted to 33 mL/min/kg; the intrinsic clearance, rat liver microsomes came out at 204 mL/min/kg; the aqueous solubility was determined as 34.9 µg/mL (≈ 133 µM).

Regarding `O=C(NO)c1cnc(NC2(c3cccc(F)c3)CCCCC2)nc1`, the intrinsic clearance, human liver microsomes is 14.4 mL/min/kg and the intrinsic clearance, rat liver microsomes was 306 mL/min/kg.

Regarding `O=C(NCc1ccc2c(c1)OCCO2)c1sccc1C1CC1`, the MDR1-MDCK efflux ratio stood at 0.474; the intrinsic clearance, human liver microsomes came out at 147 mL/min/kg; the intrinsic clearance, rat liver microsomes worked out at 2320 mL/min/kg; the aqueous solubility was determined as 31.2 µg/mL (≈ 98.9 µM).

Regarding `CN(C)c1ncncc1NC(=O)c1ccc(C(F)(F)F)nc1`, the intrinsic clearance, human liver microsomes was not above 4.74 mL/min/kg and the intrinsic clearance, rat liver microsomes was not above 10.7 mL/min/kg.

As for `Cc1nn(C)c(C)c1-c1cc(C(C)(C)C)nc(N2CCN(C)CC2)n1`, the MDR1-MDCK efflux ratio was 1.81; the intrinsic clearance, human liver microsomes worked out at 17.5 mL/min/kg; the intrinsic clearance, rat liver microsomes was found to be 4620 mL/min/kg.

On to `CC1Cc2ccccc2N1C(=O)CN1CCC(n2c(=O)[nH]c3ccccc32)CC1` (configuration not stated), for which the MDR1-MDCK efflux ratio was 29; the intrinsic clearance, human liver microsomes came out at 61.3 mL/min/kg; the intrinsic clearance, rat liver microsomes worked out at 1030 mL/min/kg; the aqueous solubility came out at 54.8 µg/mL (≈ 140 µM).

Consider `CC1(C)CC(=O)C2=C(C1)NC(=O)CC2c1ccc(Br)cc1` (configuration not stated), for which the MDR1-MDCK efflux ratio amounted to 3.38; the fraction unbound, human plasma was determined as 0.144; the fraction unbound, rat plasma turned out to be 0.088; the intrinsic clearance, human liver microsomes was determined as 59.6 mL/min/kg. Besides, the intrinsic clearance, rat liver microsomes stood at 247 mL/min/kg.

Values taken from the Biogen ADME set (Fang et al. 2023).
